Source: ChEMBL document CHEMBL1201862, “PubChem BioAssay data set” (2004)
The source made the active and inactive calls. No stated cut-off is given here; in the data, actives have a measured IC50 and inactives only a lower limit.

Molecular target: Envelope glycoprotein gp160 (Human immunodeficiency virus 1, UniProt Q6QLK5)
Experiment: cell-free HIV fusion peptide-binding blockers – biochemical, uHTS, fluorescence dequenching, […] (AID 1986)

Envelope glycoprotein gp160, sequence (Q6QLK5 whole entry, the tested form may be a part): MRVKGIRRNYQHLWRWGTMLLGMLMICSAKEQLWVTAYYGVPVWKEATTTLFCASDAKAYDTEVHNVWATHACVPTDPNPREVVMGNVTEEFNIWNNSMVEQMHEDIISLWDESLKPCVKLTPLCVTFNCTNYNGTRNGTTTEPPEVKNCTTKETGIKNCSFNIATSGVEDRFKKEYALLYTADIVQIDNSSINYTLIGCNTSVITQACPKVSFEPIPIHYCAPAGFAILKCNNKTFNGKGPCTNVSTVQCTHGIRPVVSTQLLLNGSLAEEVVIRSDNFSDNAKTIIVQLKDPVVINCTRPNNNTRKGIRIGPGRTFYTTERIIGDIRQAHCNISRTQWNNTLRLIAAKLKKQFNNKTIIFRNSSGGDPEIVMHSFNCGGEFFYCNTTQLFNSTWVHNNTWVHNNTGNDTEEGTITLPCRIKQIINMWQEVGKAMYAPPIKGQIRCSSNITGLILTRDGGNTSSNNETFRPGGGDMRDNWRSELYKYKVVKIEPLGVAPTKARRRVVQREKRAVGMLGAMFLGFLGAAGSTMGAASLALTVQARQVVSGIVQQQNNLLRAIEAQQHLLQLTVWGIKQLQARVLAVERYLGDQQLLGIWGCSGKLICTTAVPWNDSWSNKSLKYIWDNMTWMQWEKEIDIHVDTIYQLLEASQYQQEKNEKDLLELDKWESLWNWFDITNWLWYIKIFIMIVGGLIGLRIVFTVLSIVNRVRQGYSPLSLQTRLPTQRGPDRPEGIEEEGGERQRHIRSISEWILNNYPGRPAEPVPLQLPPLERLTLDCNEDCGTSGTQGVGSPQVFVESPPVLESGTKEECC

Row | Structure (SMILES) | IC50
1 | O=C(NC(=S)Nc1ccccc1C(=O)O)c1ccc(-c2ccc(Br)cc2)o1 | 18.5 µM (active)
2 | O=C1NN(c2ccc(Cl)c(Cl)c2)C(=O)/C1=C/c1cccc(OC(=O)c2cccs2)c1 | 11.8 µM (active)
3 | O=C(O)c1ccc(NS(=O)(=O)c2ccc3c(c2)C2C=CCC2C(c2ccccc2F)N3)cc1 (centres undefined) | 17.7 µM (active)
4 | O=C(CCCN1C(=O)/C(=C/c2cccs2)SC1=S)Nc1ccc(O)c(C(=O)O)c1 | 24.1 µM (active)
